From patent US10590413B2, “Chiral control” (WAVE LIFE SCIENCES LTD., priority 2012, dated 2020)
Where two headings read alike, the source gives them in different places. Strand notation (5' to 3'): a small letter for the sugar, then the base; units joined by * are phosphorothioate-linked, units joined directly phosphodiester-linked; [ ] holds rarer units or linkages, { } end groups; capitals alone tell only the bases. [Rp] = phosphorothioate linkage, Rp; [Sp] = phosphorothioate linkage, Sp; e = 2'-O-(2-methoxyethyl) (MOE); [5mC] = 5-methylcytosine; d = 2'-deoxy (DNA)

What was measured:
Mouse B Cells = conditions: mean and std. dev. of at least 3 experiments, compared to wells with no added ODN, cited from earlier work
NK activity = conditions: cited from earlier work; for % 2C11 Specific Lysis, Effector:Target 50:1 / % 2C11 Specific Lysis, Effector:Target 100:1: 2C11 targets; for % YAC-1 Specific Lysis, Effector:Target 50:1 / % YAC-1 Specific Lysis, Effector:Target 100:1: YAC-1 targets
complementary RNA = experiment: Thermal denaturation experiment (Tm) of DNA strand with complementary RNA (Example 49); type: binding; conditions: duplex with complementary RNA, equimolar 0.5 μM in 1×PBS; first derivative of 254 nm absorbance curve
Description: Each DNA strand was mixed with complementary RNA in equimolar concentration of 0.5 μM in 1×PBS. Total 2.5 mL solution was prepared for each duplex and the mixture was heated at 90° C. for 2 min and was allowed to cool down over the course of several hours. The mixtures were then stored at 4° C. for 2 hrs. Absorbance at 254 nm was recorded at an interval of 0.5 min starting the temperature gradient from 15° C. to 90° C. with rise of 0.5° C./minute, using a Perkin Elmer UV-spectrophotometer equipped with a Peltier unit. The 254 nm absorbance was plotted against the temperature and the Tm values were calculated from the respective first derivative of each curve.

[1] = test system: Apolipoprotein B (Apo B) (NM_000384); experiment: Apo B gene expression in Hep3B cells after Lipofectamine 2000 transfection, real-time PCR SYBR green (Example 50); type: cell-based, Homo Sapiens; conditions: for activity compared to Mipomersen (120) / potency compared to the corresponding stereorandom oligonucleotide mixture (Oligonucleotide 118): from Table E-19 IC50, Hep3B
Description: After checking OD all oligonucleotide candidate molecules were diluted to a starting concentration of 20 μM. Multidose forward transfection experiment was setup in 96-well plates using Hep3B cells (ATCC®, Cat. HB-8064™) using Lipofectamine 2000 (Life Technologies, Cat. 11668-019) transfection reagent.
2×10^4 Hep3B cells per well were seeded and incubated for 24 hours at 37° C. in a CO2 incubator in 100 μl of antibiotic free MEM medium (Life Technologies, Cat. 11095098) containing 10% FBS and 1% Glutamax I (Life Technologies, Cat. 35050061). Twelve dilutions were setup in nuclease free water (Table E-16).
For each well, 0.5 μL of Lipofectamine 2000 were mixed with 9.5 μL of Opti MEM I reduced serum medium (Life Technologies, Cat. 31985062) and incubated for 5 minutes. Following incubation, 10 μL of each of the candidates at the reported concentrations was mixed with the diluted Lipofectamine 2000 by gentle pipetting. The mixture was then incubated for 20 minutes at room temperature to allow for complex formation. During this time the cell growth medium was replaced with 80 μL of fresh antibiotic free MEM as previously described. 20 μL of lipid-oligo complex was gently mixed into each well bringing the total volume to 100 μL. The cells were then incubated for 24 hours at 37° C. in a CO2 incubator.
After 24 hour incubation the cell growth medium was removed and RNA was extracted using a Dynabeads mRNA Direct kit (Life Technologies, Cat. 61012) per the instructions provided in the kit manual without modifications. This magnetic Oligo (dT)^25 bead system allows for cost-effective and robust high-throughput poly (A) RNA extraction circumventing DNAse treatment. RNA was eluted in nuclease-free water and stored at −80° C.
10 μL of RNA was used in a 20 μL cDNA synthesis reaction using a High Capacity cDNA Reverse Transcription Kit (Life Technologies, Cat. 4374967) using the kit protocol with RNAse Inhibitor. The reverse transcription was performed in a 96-well format on a C1000 Touch thermal cycler (Biorad, Cat. 185-1196EDU).
Gene expression was measured by quantitative PCR using a LightCycler® 480 SYBR Green I Master (Roche, Cat. 04707516001) on LightCycler 480 Real-Time PCR instrument. Primers for the Homo Sapiens sequences of the target Apolipoprotein B (Apo B) (NM_000384) and endogenous control Glyceralydhyde-3-phosphate dehydrogenase (GAPDH) (NM_002046) were designed and ordered from IDT (Table E-17).
Measurement of the target and endogenous control was performed in separate wells using material from the same cDNA template. SYBR green assay PCR conditions were setup as described in the SYBR Green I Master protocol (Table E-18).
The data is a result of 3 biological replicates. All samples were compared to Naïve untransfected control. The following results were observed when evaluating gene expression by real-time PCR using SYBR green (Table E-19, FIG. 5).

[2] = Apo B mRNA, Hep3B cells, 24 hours after transfection, read-out: IC50 (nM) (rounded up to single digit)
[3] = Complete IC50 data evaluated by SYBR green, Apo B mRNA, Hep3B cells, 24 hours, 3 biological replicates, read-out: IC50

Substance	Tm (° C.) ± 0.5 (complementary RNA) [°C]	IC50 [1, 2] [nM]	IC50 [1, 3] [nM]	activity compared to Mipomersen (120) [1]	also measured
3Dd (DNA GAGAACGCTGGACCTTCCAT; Z modified cytosine, further chemistry not given here) [Oligonucleotide 3Dd]					Stimulation Index, 3H Uridine (Mouse B Cells; US 6,239,116 Table 1): 1.2 ± 0.2; Stimulation Index, IgM Production (Mouse B Cells; US 6,239,116 Table 1): 1.0 ± 0.4; Stimulation Index, 3H Uridine (Mouse B Cells): 1.2 ± 0.2; % 2C11 Specific Lysis, Effector:Target 50:1 (NK activity; Effector:Target 50:1): 37.0%; % 2C11 Specific Lysis, Effector:Target 100:1 (NK activity; Effector:Target 100:1): 40.0%; % 2C11 Specific Lysis (NK activity; Effector:Target 50:1): 37.0%; % YAC-1 Specific Lysis (NK activity; Effector:Target 50:1): 17.1%; % 2C11 Specific Lysis (NK activity; Effector:Target 100:1): 40.0%; % YAC-1 Specific Lysis (NK activity; Effector:Target 100:1): 27.0%; % YAC-1 Specific Lysis, Effector:Target 50:1 (NK activity; Effector:Target 50:1): 17.1%; % YAC-1 Specific Lysis, Effector:Target 100:1 (NK activity; Effector:Target 100:1): 27.0%
(Sp, Sp, Sp, Sp, Sp, Rp, Rp, Rp, Rp, Rp, Rp, Rp, Rp, Rp, Sp, Sp, Sp, Sp, Sp)-d[GsCsCsTsCsAsGsTsCsTsGsCsTsTsCsGsCsAsCsC] (DNA GCCTCAGTCTGCTTCGCACC; DNA, linkages [Sp]5 [Rp]9 [Sp]5 (s phosphorothioate, o phosphodiester), methylation of C not given here) [Oligonucleotide 104]	63.5	4	4.29	more active	
(Sp, Rp, Rp, Rp, Rp, Rp, Rp, Rp, Rp, Rp, Rp, Rp, Rp, Rp, Rp, Rp, Rp, Rp, Sp)-d[GsCsCsTsCsAsGsTsCsTsGsCsTsTsCsGsCsAsCsC] (DNA GCCTCAGTCTGCTTCGCACC; DNA, linkages [Sp]1 [Rp]17 [Sp]1 (s phosphorothioate, o phosphodiester), methylation of C not given here) [Oligonucleotide 105]	66.5	3	2.88	more active	potency compared to the corresponding stereorandom oligonucleotide mixture (Oligonucleotide 118) [1]: more potent
(Rp, Rp, Rp, Sp, Sp, Sp, Sp, Sp, Sp, Sp, Sp, Sp, Sp, Sp, Sp, Sp, Rp, Rp, Rp)-d[GsCsCsTsCsAsGsTsCsTsGsCsTsTsCsGsCsAsCsC] (DNA GCCTCAGTCTGCTTCGCACC; DNA, linkages [Rp]3 [Sp]13 [Rp]3 (s phosphorothioate, o phosphodiester), methylation of C not given here) [Oligonucleotide 110]	62.9	7	7.44		
119 (DNA GCCTCAGTCTGCTTCGCACC; unmodified DNA) [Oligonucleotide 119]	73.4				IC50 (nM) (rounded up to single digit) ([1]; Apo B mRNA, Hep3B cells, 24 hours after transfection): Not detected
(Sp, Sp, Sp, Rp, Rp, Rp, Rp, Rp, Rp, Rp, Rp, Rp, Rp, Rp, Rp, Rp, Sp, S, Sp)d[GsCsCsTsCsAsGsTsCsTsGsCsTsTsCsGsCsAsCsC] (DNA GCCTCAGTCTGCTTCGCACC; DNA, linkages [Sp]3 [Rp]13 [Sp]3 (s phosphorothioate, o phosphodiester), methylation of C not given here) [Oligonucleotide 109]	65.8	2	1.72	more active	potency compared to the corresponding stereorandom oligonucleotide mixture (Oligonucleotide 118) [1]: more potent
(Rp, Rp, Sp, Rp, Rp, Sp, Rp, Rp, Sp, Rp, Rp, Sp, Rp, Rp, Sp, Rp, Rp, Sp, Rp)-d[GsCsCsTsCsAsGsTsCsTsGsCsTsTsCsGsCsAsCsC] (DNA GCCTCAGTCTGCTTCGCACC; DNA, linkages [Rp][Rp][Sp][Rp][Rp][Sp][Rp][Rp][Sp][Rp][Rp][Sp][Rp][Rp][Sp][Rp][Rp][Sp][Rp] (s phosphorothioate, o phosphodiester), methylation of C not given here) [Oligonucleotide 114]	65.2	5	5.23		
Mipomersen (DNA eG*e[5mC]*e[5mC]*eT*e[5mC]*dA*dG*dT*d[5mC]*dT*dG*d[5mC]*dT*dT*d[5mC]*eG*e[5mC]*eA*e[5mC]*e[5mC]) [Oligonucleotide 120, "Mipomersen, which is a stereorandom oligonucleotide mixture (Oligonucleotides 104, 105 ... compared to 120)", reference compound]	65.3	4	4.39		
(Rp, Sp, Rp, Sp, Rp, Sp, Rp, Sp, Rp, Sp, Rp, Sp, Rp, Sp, Rp, Sp, Rp, Sp, Rp)-d[GsCsCsTsCsAsGsTsCsTsGsCsTsTsCsGsCsAsCsC] (DNA GCCTCAGTCTGCTTCGCACC; DNA, linkages [Rp][Sp][Rp][Sp][Rp][Sp][Rp][Sp][Rp][Sp][Rp][Sp][Rp][Sp][Rp][Sp][Rp][Sp][Rp] (s phosphorothioate, o phosphodiester), methylation of C not given here) [Oligonucleotide 107]	64.5	4	~4.18	more active	
(Sp, Rp, Rp, Sp, Rp, Rp, Sp, Rp, Rp, Sp, Rp, Rp, Sp, Rp, Rp, Sp, Rp, Rp, Sp)-d[GsCsCsTsCsAsGsTsCsTsGsCsTsTsCsGsCsAsCsC] (DNA GCCTCAGTCTGCTTCGCACC; DNA, linkages [Sp][Rp][Rp][Sp][Rp][Rp][Sp][Rp][Rp][Sp][Rp][Rp][Sp][Rp][Rp][Sp][Rp][Rp][Sp] (s phosphorothioate, o phosphodiester), methylation of C not given here) [Oligonucleotide 115]	65.2	3	2.69	more active	potency compared to the corresponding stereorandom oligonucleotide mixture (Oligonucleotide 118) [1]: more potent
1 (DNA GCTAGACGTTAGCGT; chemistry not given here) [Oligonucleotide 1]					Stimulation Index, 3H Uridine (Mouse B Cells; US 6,239,116 Table 1): 6.1 ± 0.8; Stimulation Index, IgM Production (Mouse B Cells; US 6,239,116 Table 1): 17.9 ± 3.6; Stimulation Index, 3H Uridine (Mouse B Cells): 6.1 ± 0.8; % 2C11 Specific Lysis, Effector:Target 50:1 (NK activity; Effector:Target 50:1): 38.7%; % 2C11 Specific Lysis, Effector:Target 100:1 (NK activity; Effector:Target 100:1): 47.2%; % 2C11 Specific Lysis (NK activity; Effector:Target 50:1): 38.7%; % YAC-1 Specific Lysis (NK activity; Effector:Target 50:1): 16.1%; % 2C11 Specific Lysis (NK activity; Effector:Target 100:1): 47.2%; % YAC-1 Specific Lysis (NK activity; Effector:Target 100:1): 24.5%; % YAC-1 Specific Lysis, Effector:Target 50:1 (NK activity; Effector:Target 50:1): 16.1%; % YAC-1 Specific Lysis, Effector:Target 100:1 (NK activity; Effector:Target 100:1): 24.5%
